Like-named read-outs stand apart in the source and are kept apart here.
Legend:
NALM-6 [1] = test: cells; format: cell-based; details: Homo sapiens, NALM-6, read-out: NALM-6 IC50
MOLT-3 [2] = test: cells; format: cell-based; details: Homo sapiens, MOLT-3, read-out: MOLT-3 IC50
ALL1 = test: cells; format: cell-based; details: Homo sapiens, read-out: ALL1 IC50
RS4;11 = test: cells; format: cell-based; details: Homo sapiens, RS4-11, read-out: RS4;11 IC50
BT20 [3] = test system: BT20
BT20 [4] = test: cells; details: Homo sapiens, BT-20, read-out: BT20 IC50
NALM-6 [5] = test: Anti-proliferative activity (colony counts), NALM-6; format: cell-based, human
Source text: (§1) The dose-responsive anti-proliferative activity of various organic arsenic acid substituted compounds against leukemic cell lines (NALM-6 and MOLT-3) is shown below in Table 3. FIGS. 3A-3F show dose response curves in ALL1, NALM-6, and MOLT-3 cells.

MOLT-3 [6] = test: Anti-proliferative activity (colony counts), MOLT-3; format: cell-based, human
Source text: as §1

primary leukemic cells = test: MTT cytotoxicity against primary leukemic cells; details: cells from 5 leukemia patients, FIGS. 4A-4E
NALM-6 cells = test: MTT cytotoxicity over 1-4 days versus arsenic trioxide, NALM-6; details: MTT, doses 0.07 μM to 5 μM
[7] = test system: leukemic cell lines (NALM-6, MOLT-3, ALL1, RS4;11); test: cells; details: Homo sapiens, read-out: IC50 values in leukemic cell lines
[8] = NALM-6, concentration 0.1 (mM as printed)
[9] = NALM-6, concentration 1 (mM as printed)
[10] = NALM-6, concentration 10 (mM as printed)
[11] = NALM-6, concentration 100 (mM as printed)
[12] = MOLT-3, concentration 0.1 (mM as printed)
[13] = MOLT-3, concentration 1 (mM as printed)
[14] = MOLT-3, concentration 10 (mM as printed)
[15] = MOLT-3, concentration 100 (mM as printed)

Molecule: Nc1nc(N)nc(Nc2ccc(N=Nc3ccc([As](=O)(O)O)cc3)cc2)n1 [WHI-P374, 2,6-Diamino-4[(4′-aminophenylazo)-phenylarsenic acid]-1,3,5-triazine]
- IC50 (NALM-6 [1]): 50.1 µM
- IC50 (MOLT-3 [2]): 104 µM
- IC50 (ALL1): 55.8 µM
- IC50 (RS4;11): 53.6 µM
- melting point: > 300 °C
- cytotoxic against the breast cancer cell line BT20 (in words) (BT20 [3]): cytotoxic
- IC50 (BT20 [4]): 13.9 µM

Molecule: CSc1nccc(Nc2ccc(N=Nc3ccc([As](=O)(O)O)cc3)cc2)n1 [WHI-P370, 2-Methylthio-4-[(4′-aminophenylazo)-phenylarsenic acid]pyrimidine]
- IC50 (NALM-6 [1]): 5.98 µM
- IC50 (MOLT-3 [2]): 2.9 µM
- IC50 (ALL1): 1.9 µM
- IC50 (RS4;11): 4.8 µM
- % Inhibition (NALM-6 [5]; [8]): 30.9%
- Mean No. of Colonies/10^6 Cells (NALM-6 [5]; [8]): 2194(2860, 2968) Colonies/10^6 Cells
- % Inhibition (NALM-6 [5]; [9]): 100%
- Mean No. of Colonies/10^6 Cells (NALM-6 [5]; [9]): 0 Colonies/10^6 Cells
- % Inhibition (NALM-6 [5]; [10]): 100%
- Mean No. of Colonies/10^6 Cells (NALM-6 [5]; [10]): 0 Colonies/10^6 Cells
- % Inhibition (NALM-6 [5]; [11]): 100%
- Mean No. of Colonies/10^6 Cells (NALM-6 [5]; [11]): 0 Colonies/10^6 Cells
- % Inhibition (MOLT-3 [6]; [12]): 6.1%
- Mean No. of Colonies/10^6 Cells (MOLT-3 [6]; [12]): 992(896, 1088) Colonies/10^6 Cells
- % Inhibition (MOLT-3 [6]; [13]): 100%
- Mean No. of Colonies/10^6 Cells (MOLT-3 [6]; [13]): 0 Colonies/10^6 Cells
- % Inhibition (MOLT-3 [6]; [14]): 100%
- Mean No. of Colonies/10^6 Cells (MOLT-3 [6]; [14]): 0 Colonies/10^6 Cells
- % Inhibition (MOLT-3 [6]; [15]): 100%
- Mean No. of Colonies/10^6 Cells (MOLT-3 [6]; [15]): 0 Colonies/10^6 Cells
- melting point: 240 to 242 °C
- cytotoxic against the breast cancer cell line BT20 (in words) (BT20 [3]): cytotoxic
- IC50 (BT20 [4]): 67.8 µM
- cytotoxic activity against primary leukemic cells (in words) (primary leukemic cells): susceptible to the cytotoxic effects

Molecule: O=[As](O)(O)c1ccc(N=Nc2ccc(Nc3ncnc4[nH]cnc34)cc2)cc1 [WHI-P371, 6-[(4′-Aminophenylazo)-phenylarsenic acid]-purine]
- IC50 (NALM-6 [1]): 15.2 µM
- IC50 (MOLT-3 [2]): 21.6 µM
- IC50 (ALL1): 24.5 µM
- IC50 (RS4;11): 16.2 µM
- % Inhibition (NALM-6 [5]; [8]): 8.8%
- Mean No. of Colonies/10^6 Cells (NALM-6 [5]; [8]): 3846(3696, 3996) Colonies/10^6 Cells
- % Inhibition (NALM-6 [5]; [9]): 76.4%
- Mean No. of Colonies/10^6 Cells (NALM-6 [5]; [9]): 994(616, 1372) Colonies/10^6 Cells
- % Inhibition (NALM-6 [5]; [10]): 100%
- Mean No. of Colonies/10^6 Cells (NALM-6 [5]; [10]): 0 Colonies/10^6 Cells
- % Inhibition (NALM-6 [5]; [11]): 100%
- Mean No. of Colonies/10^6 Cells (NALM-6 [5]; [11]): 0 Colonies/10^6 Cells
- Mean No. of Colonies/10^6 Cells (MOLT-3 [6]; [12]): 1098(1004, 1192) Colonies/10^6 Cells
- % Inhibition (MOLT-3 [6]; [13]): 27.9%
- Mean No. of Colonies/10^6 Cells (MOLT-3 [6]; [13]): 761(678, 844) Colonies/10^6 Cells
- % Inhibition (MOLT-3 [6]; [14]): 100%
- Mean No. of Colonies/10^6 Cells (MOLT-3 [6]; [14]): 0 Colonies/10^6 Cells
- % Inhibition (MOLT-3 [6]; [15]): 100%
- Mean No. of Colonies/10^6 Cells (MOLT-3 [6]; [15]): 0 Colonies/10^6 Cells
- melting point: > 300 °C
- IC50 (BT20 [4]): > 250 µM
- cytotoxic activity against primary leukemic cells (in words) (primary leukemic cells): susceptible to the cytotoxic effects

Molecule: COc1cc2ncnc(Nc3ccc([As](=O)(O)O)cc3)c2cc1OC
- melting point: > 300 °C

Molecule: COc1cc2ncnc(Nc3ccccc3[As](=O)(O)O)c2cc1OC [WHI-P378, 4-(2′-phenylarsenic acid)amino-6,7-dimethoxyquinazoline]
- IC50 (NALM-6 [1]): 46.6 µM
- IC50 (MOLT-3 [2]): 67.3 µM
- IC50 (ALL1): 128 µM
- IC50 (RS4;11): 115 µM
- melting point: > 300 °C
- IC50 (BT20 [4]): > 250 µM

Molecule: COc1cc2ncnc(Nc3ccc(N=Nc4ccc([As](=O)(O)O)cc4)cc3)c2cc1OC [WHI-P273, 4-[(6′,7′-Dimethoxyquinazoline-4′)-aminophenylazo]phenyl arsenic acid]
- IC50 (NALM-6 [1]): 7.3 µM
- IC50 (MOLT-3 [2]): 12.1 µM
- IC50 (ALL1): 8.2 µM
- IC50 (RS4;11): 7.7 µM
- % Inhibition (NALM-6 [5]; [8]): 13.7%
- Mean No. of Colonies/10^6 Cells (NALM-6 [5]; [8]): 3638(3260, 4016) Colonies/10^6 Cells
- % Inhibition (NALM-6 [5]; [9]): 98.5%
- Mean No. of Colonies/10^6 Cells (NALM-6 [5]; [9]): 61(24, 96) Colonies/10^6 Cells
- % Inhibition (NALM-6 [5]; [10]): 100%
- Mean No. of Colonies/10^6 Cells (NALM-6 [5]; [10]): 0 Colonies/10^6 Cells
- % Inhibition (NALM-6 [5]; [11]): 100%
- Mean No. of Colonies/10^6 Cells (NALM-6 [5]; [11]): 0 Colonies/10^6 Cells
- Mean No. of Colonies/10^6 Cells (MOLT-3 [6]; [12]): 1230(968, 1492) Colonies/10^6 Cells
- % Inhibition (MOLT-3 [6]; [13]): 75%
- Mean No. of Colonies/10^6 Cells (MOLT-3 [6]; [13]): 264(216, 312) Colonies/10^6 Cells
- % Inhibition (MOLT-3 [6]; [14]): 100%
- Mean No. of Colonies/10^6 Cells (MOLT-3 [6]; [14]): 0 Colonies/10^6 Cells
- % Inhibition (MOLT-3 [6]; [15]): 100%
- Mean No. of Colonies/10^6 Cells (MOLT-3 [6]; [15]): 0 Colonies/10^6 Cells
- IC50 (BT20 [4]): > 250 µM
- cytotoxic activity against primary leukemic cells (in words) (primary leukemic cells): susceptible to the cytotoxic effects

Molecule: Arsenic trioxide [reference compound]
- IC50 (NALM-6 cells; read-out: Cytotoxicity against NALM-6 cells IC50, Day 1, 1 day of treatment): 3.8 µM
- IC50 (NALM-6 cells; read-out: Cytotoxicity against NALM-6 cells IC50, Day 2, 2 days of treatment): 3.2 µM
- IC50 (NALM-6 cells; read-out: Cytotoxicity against NALM-6 cells IC50, Day 3, 3 days of treatment): 2 µM
- IC50 (NALM-6 cells; read-out: Cytotoxicity against NALM-6 cells IC50, Day 4, 4 days of treatment): 1.2 µM

Molecule: CSc1nccc(Nc2ccc([As](=O)(O)O)cc2)n1 [WHI-P380, 2-Methylthio-4-(4′-phenylarsenic acid)-aminopyrimidine]
- IC50 (NALM-6 [1]): 1.7 µM
- IC50 (MOLT-3 [2]): 14.2 µM
- IC50 (ALL1): 6.2 µM
- IC50 (RS4;11): 10.2 µM
- % Inhibition (NALM-6 [5]; [8]): 66.9%
- Mean No. of Colonies/10^6 Cells (NALM-6 [5]; [8]): 400(116, 684) Colonies/10^6 Cells
- % Inhibition (NALM-6 [5]; [9]): 99.8%
- Mean No. of Colonies/10^6 Cells (NALM-6 [5]; [9]): 2(3, 1) Colonies/10^6 Cells
- % Inhibition (NALM-6 [5]; [10]): 100%
- Mean No. of Colonies/10^6 Cells (NALM-6 [5]; [10]): 0 Colonies/10^6 Cells
- % Inhibition (NALM-6 [5]; [11]): 100%
- Mean No. of Colonies/10^6 Cells (NALM-6 [5]; [11]): 0 Colonies/10^6 Cells
- % Inhibition (MOLT-3 [6]; [12]): 52.8%
- Mean No. of Colonies/10^6 Cells (MOLT-3 [6]; [12]): 678(624, 732) Colonies/10^6 Cells
- % Inhibition (MOLT-3 [6]; [13]): 69.7%
- Mean No. of Colonies/10^6 Cells (MOLT-3 [6]; [13]): 436(272, 600) Colonies/10^6 Cells
- % Inhibition (MOLT-3 [6]; [14]): 100%
- Mean No. of Colonies/10^6 Cells (MOLT-3 [6]; [14]): 0 Colonies/10^6 Cells
- % Inhibition (MOLT-3 [6]; [15]): 100%
- Mean No. of Colonies/10^6 Cells (MOLT-3 [6]; [15]): 0 Colonies/10^6 Cells
- melting point: > 300 °C
- IC50 (BT20 [4]): 239 µM
- IC50 [7]: 1.7 to 14.2 µM
- cytotoxic activity against primary leukemic cells (in words) (primary leukemic cells): susceptible to the cytotoxic effects
